The text below walks through data of patent US4031235A, “Insecticidal substituted acetate compounds” (Sumitomo Chemical Company, Limited, priority 1972, dated 1977).

≈ marks a conversion by molar mass, not a printed value.

Data set [1] deals with small brown planthoppers (Delphacodes striatella Fallen). Description: Killing effect on small brown planthoppers on sprayed rice plants (Experimental Example 1). Type of data set: in vivo. The note with it: 300-fold dilute solution, 10 ml/pot; one day after treatment; 1440 min. As for the experimental part: (§1) An emulsifiable concentrate was prepared by blending each of the compounds (1) to (300) of the present invention, xylol and Sorpol SM-200 (trade name; manufactured by Toho Chemical Co., Ltd.) in a proportion of 25%, 50% and 25% (by weight), respectively. 20 to 25 day-old rice plants after seeding were grown in pots and sprayed with each 300-fold dilute solution of the emulsifiable concentrates thus prepared and a 300-fold dilute solution of carbaryl 30% wettable powder diluted with water as a control commercial agent in an amount of 10 ml/pot in each case and then the pots were covered by a cylindrical metal net. 15 small brown planthoppers (Delphacodes striatella Fallen) per group were released in each of the pots treated with carbaryl wettable powder, and compound (1) to (21) and (102) to (110), while 15 green rice leafhopper (Nephotettix bipuntatus cincticeps Uhler) per group were released in each of the pots treated with the carbaryl wettable powder and compounds (22) to (101) and (111) to (300).

The subject of data set [2] is green rice leafhopper (Nephotettix bipuntatus cincticeps Uhler). Description: Killing effect on green rice leafhopper on sprayed rice plants (Experimental Example 1). The note with it: 300-fold dilute solution, 10 ml/pot; one day after treatment; 1440 min. It counts as in vivo. As for the experimental part:
as §1

The test system of data set [3] is oriental house flies. Briefly: Potentiation of insecticidal activity by addition of piperonyl butoxide, topical application (Experimental Example 6). It counts as in vivo. The note with it: piperonyl butoxide 5 times active ingredient; acetone solution on thoracic dorsal plate. Here is the method: To each of the compounds (22), (51), (62), (63), (82), (86), (125), (150), (160), (176), (177), (178), (184), (185), (191), (195), (200), (201), (204), (208), (210), (212) and (226) was added piperonyl butoxide in an amount of 5 times that of the active ingredient, respectively to prepare an acetone solution having a given concentration. Each of the thus prepared acetone solutions was applied onto a thoracic dosal plate of oriental house flies using a microshringe to observe a synergestic effect on insecticidal activity by piperonyl butoxide.

Data set [4] concerns Larvae of Mosquito (Culex pipiens). Briefly: Insecticidal activity on larvae of mosquito (Experimental Example 2). Type of data set: in vivo. The following applies: 24 h, read-out: LC50 (50% lethal concentration). Here is the method:
as §1
Of the emulsifiable concentrates prepared in Experimental Example 1, each of those prepared from the compounds of Table 1 below was diluted with water to each of test concentrations and a 200 ml portion thereof was added to a 300 ml volume beaker. 30 larvae of mosquito per group were released in each of the beaker and allowed to stand for 1 day. Survival was observed and a LC50 (50% lethal concentration) was determined by calculating a percent killing in each case. As a control, lindane emulsifiable concentrate was used.

Data set [5] relates to oriental house flies. Briefly: Activity on knock-down against oriental house flies (Experimental Example 5). It counts as in vivo. The following applies: 0.2% oil preparation, 0.7 ml, 1.5 Kg/cm^2, (70 cm)^3 glass box. As for the experimental part:
(§2) 0.2% oil preparation was prepared from each of the compounds (1), (2), (8), (14), (22), (25), (26), (27), (51), (62), (73), (82), (86), (88), to (90), (92), (94), (96), (111), (119), (121), (165), (175), (180), (184), (185), (195), (200), (201), and (208) and allethrin as a control using deodorized kerosene.
20 oriental house flies per group were released in a (70 cm)^3 volume glass box and sprayed with each of the oil preparations prepared in Experimental Example 4 from the compounds of Table 3 below and allethrin in an amount of 0.7 ml under a pressure of 1.5 Kg/cm^2.

A short description of data set [6]: Oral toxicity to mice. The following applies: mouse, in vivo.
Data set [7] relates to adult mosquitoes (Culex pipiens). Description: Knock-down of adult mosquitoes by 0.2% oil preparation (Experimental Example 4). It counts as in vivo. The following applies: 0.2% oil preparation, 0.7 ml, 1.5 Kg/cm^2, (70 Cm)^3 glass box, read-out: mosquitoes knocked down. Here is the method:
as §2

As to `CNC(=O)Oc1cccc2ccccc12` [carbaryl], the killing effect entry in data set [1] and in data set [2] was “more than 90%” throughout.
Consider `C=C(C)C(C(=O)OCc1cccc(Oc2ccccc2)c1)c1ccc(Cl)cc1` (stereo not drawn) [compound 119, 3'-Phenoxybenzyl-α-isopropenyl-4-chlorophenylacetate], for which the “Potentiation magnification of insecticidal activity by the addition of piperonyl butoxide” value in data set [3] is given as 5.5. In data set [4], the LC50 turned out to be 4.4 ng/mL (≈ 0.0112 µM). In addition, the “KT50 (50% knock-down time)” value in data set [5] worked out at 132 s. The compound also came in with an LD50 in data set [6] above 1000 mg/kg. The pest or weed control at 0.2 % in data set [7] was above 80%.
Take `CCC(C(=O)OCc1coc(Cc2ccccc2)c1)c1ccc(Cl)cc1` (stereo not drawn) [compound 184]: the “Potentiation magnification of insecticidal activity by the addition of piperonyl butoxide” value in data set [3] is recorded as 5.6. Further, the LC50 in data set [4] came to 7.8 ng/mL (≈ 0.0211 µM). The “KT50 (50% knock-down time)” value in data set [5] turned out to be 142 s. The LD50 in data set [6] is 940 mg/kg. In data set [7], the pest or weed control at 0.2 % is above 80%.

A word on the LD50: it is the dose at which mortality reaches 50%. High values mean lower toxicity, low ones greater toxicity.
